Data: US9346761B2, “Arginine methyltransferase inhibitors and uses thereof” (Epizyme, Inc., priority 2013, dated 2016)
Read-outs that look alike come from different tables or passages of the source.

Legend:
Full-length human PRMT3 = target: T1, Full-length human PRMT3 (Homo sapiens, UniProt O60678); experiment: PRMT3 biochemical assay (3H-SAM Flashplate, peptide substrate)
T1 construct: GST-tagged PRMT3; made in house; host or cells: E. coli BL21(DE3) Gold (pGEX-KG)
Outline: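 GST-tagged full-length PRMT3 (0.5 nM, E. coli-expressed) preincubated 30 min at room temperature with compound, then 330 nM biotinylated peptide, 100 nM 3H-SAM plus 1.8 uM SAM in Bicine pH 7.6, 2% DMSO.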

[1] = test system: mono-methyl arginine in RKO cells; experiment: RKO methylation assay, In Cell Western for mono-methyl arginine and DNA content; type: cell-based; settings: Homo sapiens
[2] = In Cell Western, RKO cells, 72 hours, percent activation of mono-methyl arginine signal, read-out: EC30

T1 sequence (O60678 with tags, fused parts or gaps): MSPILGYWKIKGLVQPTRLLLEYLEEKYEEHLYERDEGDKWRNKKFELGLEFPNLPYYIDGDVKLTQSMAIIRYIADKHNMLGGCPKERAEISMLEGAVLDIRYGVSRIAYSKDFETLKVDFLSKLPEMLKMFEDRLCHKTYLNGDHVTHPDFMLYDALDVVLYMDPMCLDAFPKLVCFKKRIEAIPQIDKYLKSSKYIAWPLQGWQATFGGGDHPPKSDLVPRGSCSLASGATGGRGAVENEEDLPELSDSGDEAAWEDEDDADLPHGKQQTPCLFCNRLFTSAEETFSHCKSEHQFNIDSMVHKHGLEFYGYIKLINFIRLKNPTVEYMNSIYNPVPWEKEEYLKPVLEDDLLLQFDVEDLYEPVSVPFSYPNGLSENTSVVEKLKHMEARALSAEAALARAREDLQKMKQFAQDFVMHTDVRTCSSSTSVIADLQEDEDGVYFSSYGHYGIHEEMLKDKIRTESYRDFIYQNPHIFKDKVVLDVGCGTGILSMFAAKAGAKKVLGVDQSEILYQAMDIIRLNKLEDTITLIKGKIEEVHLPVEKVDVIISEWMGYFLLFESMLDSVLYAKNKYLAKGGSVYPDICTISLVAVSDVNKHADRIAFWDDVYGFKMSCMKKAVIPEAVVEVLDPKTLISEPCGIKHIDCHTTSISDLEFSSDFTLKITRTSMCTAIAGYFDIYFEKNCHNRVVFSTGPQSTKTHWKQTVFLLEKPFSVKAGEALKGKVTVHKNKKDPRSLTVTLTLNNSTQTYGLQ

| SMILES | IC50 (Full-length human PRMT3) [µM] | EC30 [1, 2] [µM] | EC30 ([1]; RKO, 72 h) [µM] |
| --- | --- | --- | --- |
| CN(CCN)Cc1cn[nH]c1-c1ccc(F)cc1 [Compound 1] | 1.01 to 3 | 3.01 to 12 | – |
| CNCCN(C)Cc1c[nH]nc1-c1ccc(F)cc1 [Compound 2, N^1-((3-(4-fluorophenyl)-1H-pyrazol-4-yl)methyl)-N^1,N^2-dimethylethane-1,2-diamine] | 3.01 to 10 | – | > 12 |
| CN(CCN)Cc1cn(C)nc1-c1ccc(F)cc1 [Compound 3] | > 10 | > 12 | – |
| CN(CCN)Cc1cnn(C)c1-c1ccc(F)cc1 [Compound 4] | > 10 | – | > 12 |
| CCN(CCNC)Cc1c[nH]nc1-c1ccc(F)cc1 [Compound 9] | 3.01 to 10 | > 12 | – |
| CNCCN(C)Cc1cnn(C)c1-c1ccc(F)cc1 [Compound 10] | > 10 | > 12 | – |
| CNCCN(C)Cc1cn(CC2CCOCC2)nc1-c1ccc(F)cc1 [Compound 11] | > 10 | > 12 | – |
| CNCCN(C)Cc1cnn(CC2CCOCC2)c1-c1ccc(F)cc1 [Compound 12] | > 10 | > 12 | – |
| CNCCN(C)Cc1c[nH]nc1-c1cccc(N)c1 [Compound 32] | 1.01 to 3 | > 12 | – |
| CNCCN(C)Cc1c[nH]nc1-c1ccc(CC#N)cc1 [Compound 34] | > 10 | > 12 | – |
| CNCCN(C)Cc1c[nH]nc1-c1ccccc1O [Compound 35] | > 10 | > 12 | – |
| CNCCN(C)Cc1c[nH]nc1-c1ccccc1Oc1ccccc1 [Compound 36] | > 10 | > 12 | – |
| CNCCN(C)Cc1c[nH]nc1-c1cccc(OC(F)(F)F)c1 [Compound 39] | > 10 | > 12 | – |
| CNCCN(C)Cc1c[nH]nc1-c1ccccc1NS(C)(=O)=O [Compound 41] | > 10 | > 12 | – |
| CNCCN(C)Cc1c[nH]nc1-c1cccc(NC(C)=O)c1 [Compound 42] | 1.01 to 3 | > 12 | – |
| CNCCN(C)Cc1c[nH]nc1-c1cccc(C(C)=O)c1 [Compound 44] | 3.01 to 10 | > 12 | – |
| CNCCN(C)Cc1c[nH]nc1-c1ccc(C(=O)c2ccccc2)cc1 [Compound 45] | 3.01 to 10 | < 3 | – |
| CNCCN(C)Cc1c[nH]nc1-c1ccccc1-c1ccccc1 [Compound 46] | > 10 | > 12 | – |
| CNCCN(C)Cc1c[nH]nc1-c1ccc(-c2ccccc2)cc1 [Compound 47] | 0.101 to 1 | < 3 | – |
| CNCCN(C)Cc1c[nH]nc1-c1ccccc1F [Compound 48] | > 10 | > 12 | – |
| CNCCN(C)Cc1c[nH]nc1-c1ccc(F)cc1F [Compound 49] | 3.01 to 10 | > 12 | – |
| CNCCN(C)Cc1c[nH]nc1-c1cc(F)ccc1F [Compound 50] | > 10 | > 12 | – |
| CNCCN(C)Cc1c[nH]nc1-c1ccc(F)c(F)c1 [Compound 51] | 3.01 to 10 | > 12 | – |

| SMILES | IC50 (Full-length human PRMT3) [µM] | EC30 [1, 2] [µM] | EC30 ([1]; RKO, 72 h) [µM] |
| --- | --- | --- | --- |
| CNCCN(C)Cc1c[nH]nc1-c1ccc(OC)c(F)c1 [Compound 52] | 3.01 to 10 | > 12 | – |
| CNCCN(C)Cc1c[nH]nc1-c1cc(Cl)ccc1OC [Compound 53] | > 10 | > 12 | – |
| CNCCN(C)Cc1c[nH]nc1-c1cccc(OC)c1OC [Compound 54] | > 10 | > 12 | – |
| CNCCN(C)Cc1c[nH]nc1-c1ccc(OC)cc1OC [Compound 55] | > 10 | > 12 | – |
| CNCCN(C)Cc1c[nH]nc1-c1c(OC)cccc1OC [Compound 56] | > 10 | > 12 | – |
| CNCCN(C)Cc1c[nH]nc1-c1cccc2ccccc12 [Compound 57] | 3.01 to 10 | > 12 | – |
| CNCCN(C)Cc1c[nH]nc1-c1ccc2ccccc2c1 [Compound 58] | 3.01 to 10 | > 12 | – |
| CNCCN(C)Cc1cn(CCC(O)CO)nc1-c1ccc(F)cc1 (centres unmarked) [Compound 59] | > 10 | > 12 | – |
| CCNCCN(C)Cc1c[nH]nc1-c1ccc(F)cc1 [Compound 60] | > 10 | > 12 | – |
| COCCn1cc(CN(C)CCN(C)C)c(-c2ccc(F)cc2)n1 [Compound 61] | > 10 | > 12 | – |
| CCN(CCN)Cc1c[nH]nc1-c1ccc(F)cc1 [Compound 62] | 3.01 to 10 | > 12 | – |
| CCCN(CCN)Cc1c[nH]nc1-c1ccc(F)cc1 [Compound 63] | > 10 | > 12 | – |
| COCCn1ncc(CN(C)CCN(C)C)c1-c1ccc(F)cc1 [Compound 64] | > 10 | – | > 12 |
| CN(CCN)Cc1cnn(CCO)c1-c1ccc(F)cc1 [Compound 65] | > 10 | > 12 | – |
| CN(CCN)Cc1cn(CCO)nc1-c1ccc(F)cc1 [Compound 66] | > 10 | > 12 | – |
| CC(C)Oc1ccc(-c2n[nH]cc2CN(C)CCN)cc1 [Compound 67] | 3.01 to 10 | > 12 | – |
| CN(CCN)Cc1c[nH]nc1-c1ccc(C#N)cc1 [Compound 68] | 3.01 to 10 | > 12 | – |
| CN(CCN)Cc1n[nH]cc1-c1ccc(F)cc1 [Compound 69] | > 10 | 3.01 to 12 | – |
| CN(CCN)Cc1c[nH]nc1-c1cccc(C#N)c1 [Compound 70] | > 10 | > 12 | – |
| CN(CCN)Cc1c[nH]nc1-c1cccc(F)c1 [Compound 71] | > 10 | 3.01 to 12 | – |
| CN(CCN)Cc1c[nH]nc1-c1ccccc1F [Compound 72] | > 10 | > 12 | – |
| CN(CCN)Cc1c[nH]nc1-c1ccccc1 [Compound 73] | > 10 | > 12 | – |
| CN(CCN)Cc1c[nH]nc1-c1ccc(C(C)(C)C)cc1 [Compound 74] | > 10 | 3.01 to 12 | – |

| SMILES | IC50 (Full-length human PRMT3) [µM] | EC30 [1, 2] [µM] | EC30 ([1]; RKO, 72 h) [µM] |
| --- | --- | --- | --- |
| CC(C)N(CCN)Cc1c[nH]nc1-c1ccc(F)cc1 [Compound 75] | > 10 | > 12 | – |
| CN(CCN)Cc1cn(CC(O)CO)nc1-c1ccc(F)cc1 (centres unmarked) [Compound 76] | > 10 | > 12 | – |
| CN(CCN)Cc1cn(C2COC2)nc1-c1ccc(F)cc1 [Compound 77] | 3.01 to 10 | – | > 12 |
| NCCN(Cc1c[nH]nc1-c1ccc(F)cc1)C1CC1 [Compound 78] | > 10 | 3.01 to 12 | – |
| CN(CCN)Cc1cn(CC2COC2)nc1-c1ccc(F)cc1 [Compound 79] | > 10 | > 12 | – |
| CN(CCN)Cc1cnn(CC2COC2)c1-c1ccc(F)cc1 [Compound 80] | > 10 | > 12 | – |
| CN(CCN)Cc1cnn(C2COC2)c1-c1ccc(F)cc1 [Compound 81] | > 10 | > 12 | – |
| CN(CCN)Cc1c[nH]nc1-c1ccc(N2CCNCC2)cc1 [Compound 82] | 1.01 to 3 | > 12 | – |
| CN(CCN)Cc1nn(C)cc1-c1ccc(C#N)cc1 [Compound 83] | > 10 | 3.01 to 12 | – |
| CN(CCN)Cc1c(-c2ccc(C#N)cc2)cnn1C [Compound 84] | > 10 | > 12 | – |
| CN(CCN)Cc1c[nH]nc1-c1ccc(C(F)(F)F)cc1C(F)(F)F [Compound 85] | > 10 | – | > 12 |
| CN(CCN)Cc1c[nH]nc1-c1ccc(Cl)cc1Cl [Compound 86] | 3.01 to 10 | 3.01 to 12 | – |
| COc1ccc(-c2n[nH]cc2CN(C)CCN)c(OC)c1 [Compound 87] | > 10 | > 12 | – |
| Cc1ccc(-c2n[nH]cc2CN(C)CCN)c(C)c1 [Compound 88] | 3.01 to 10 | > 12 | – |
| CN(CCN)Cc1c[nH]nc1-c1ccc(F)cc1Cl [Compound 89] | 3.01 to 10 | 3.01 to 12 | – |
| Cc1ccc(-c2n[nH]cc2CN(C)CCN)c(Cl)c1 [Compound 90] | 3.01 to 10 | 3.01 to 12 | – |
| Cc1ccc(Cl)c(-c2n[nH]cc2CN(C)CCN)c1 [Compound 91] | > 10 | > 12 | – |
| CN(CCN)Cc1c[nH]nc1-c1ccc(C(F)(F)F)cc1 [Compound 92] | 3.01 to 10 | < 3 | – |
| CN(CCN)Cc1c[nH]nc1-c1ccc(OC(F)(F)F)cc1 [Compound 93] | 3.01 to 10 | < 3 | – |
| CN(CCN)Cc1c[nH]nc1-c1ccc(OC(F)F)cc1 [Compound 94] | 3.01 to 10 | < 3 | – |
| CC(C)Oc1ccc(-c2n[nH]cc2CN(C)CCN)cc1Cl [Compound 168] | 3.01 to 10 | < 3 | – |
